Data as given in US20220409620A1, “REDUCING IMMUNOGENICITY TO PEGLOTICASE” (Horizon Pharma Rheumatology LLC, priority 2016, published 2022).

System: adult patients with uncontrolled gout
Test: Health Assessment Questionnaire (HAQ-DI, HAQ pain, HAQ health), open-label study
Assay type: in vivo, human
Parameters: key to HAQ-Health, Observed, Median / HAQ-Health, Change from Baseline, Median: 0-100 scale; 0 = very well, 100 = very poor health; key to HAQ-DI, Observed, Median / HAQ-DI, Change from Baseline, Median: HAQ-DI scale 0-3; 0 = no difficulty, 3 = unable to do
Conditions: mITT Population
Method: Quality-of-Life Assessment: The HAQ was administered at the Screening and Week −4 or week −6 (prior to the first dose of MTX) Visits during the MTX Run-in Period for the open-label and randomized studies, respectively; prior to pegloticase infusion at the Day 1 and Weeks 14, 24 and 36 Visits or at the Day 1 and weeks 6, 14, 20, 24, 30, 36, and 44 visits during the Pegloticase+IMM Period for the open-label and randomized studies, respectively; at the End of Pegloticase Infusions Visit (if applicable), the Week 52/End of Study/Early Termination Visit and the Post Treatment Periods 3 and 6 Month Follow-up Visits (open-label study). The HAQ-DI is a self-report functional status instrument that can be filled out by a subject in less than 5 minutes and requires 1 minute to score. The index measures disability over the past week by asking a total of 20 questions covering 8 domains of function: dressing and grooming, arising, eating, walking, hygiene, reach, grip, and usual activities. There are at least 2 questions in each domain and the 8 domains represent a comprehensive set of functional activities. The HAQ-DI is calculated by scoring the answer to each question in the HAQ from 0 to 3, with 0 representing the ability to do without any difficulty, and 3 representing inability to do. Any activity that requires assistance from another individual or requires the use of an assistive device raises a 0 or 1 score to a 2. The highest score for each of the 8 domains is summed (range from 0 to 24) and divided by 8 to yield, on a scale with 25 possible values, a Functional Disability Index with a range from 0 to 3. The disability index is based on the number of domains answered and is computed only if the subject completes answers to at least 6 domains. The HAQ pain scale asks subjects to record how much pain they have had in the past week on a scale of 0 to 100, where zero represents “no pain” and 100 represents “severe pain”. The HAQ health scale is a measure of overall health. Subjects are asked to rate how well they are doing on a score of 0 to 100, where zero represents “very well” and 100 represents “very poor” health.

[1] = Early Termination Visit, Methotrexate Baseline
[2] = Early Termination Visit, Pegloticase Baseline
[3] = End of Pegloticase Infusions Visit, Methotrexate Baseline
[4] = End of Pegloticase Infusions Visit, Pegloticase Baseline

pegloticase
HAQ-DI, Change from Baseline, Mean (SD) (Day 1, Methotrexate Baseline): 0.1 (0.27)
HAQ-DI, Change from Baseline, Median (Day 1, Methotrexate Baseline): 0.0
HAQ-DI, Observed, Mean (SD) (Day 1, Methotrexate Baseline): 0.8 (0.77)
HAQ-DI, Observed, Median (Day 1, Methotrexate Baseline): 0.5
HAQ-Health, Change from Baseline, Mean (SD) (Day 1, Methotrexate Baseline): −8.8 (38.29)
HAQ-Health, Change from Baseline, Median (Day 1, Methotrexate Baseline): 10.0
HAQ-Health, Observed, Mean (SD) (Day 1, Methotrexate Baseline): 37.8 (27.06)
HAQ-Health, Observed, Median (Day 1, Methotrexate Baseline): 25.0
HAQ-Pain, Change from Baseline, Mean (SD) (Day 1, Methotrexate Baseline): 2.3 (19.93)
HAQ-Pain, Change from Baseline, Median (Day 1, Methotrexate Baseline): 0.0
HAQ-Pain, Observed, Mean (SD) (Day 1, Methotrexate Baseline): 42.5 (22.24)
HAQ-Pain, Observed, Median (Day 1, Methotrexate Baseline): 40.0
HAQ-DI, Change from Baseline, Mean (SD) [1]: 0.2 (0.90)
HAQ-DI, Change from Baseline, Median [1]: −0.3
HAQ-DI, Observed, Mean (SD) [1]: 0.7 (0.51)
HAQ-DI, Observed, Median [1]: 0.6
HAQ-Health, Change from Baseline, Mean (SD) [1]: −0.7 (16.77)
HAQ-Health, Change from Baseline, Median [1]: 8.0
HAQ-Health, Observed, Mean (SD) [1]: 28.3 (40.72)
HAQ-Health, Observed, Median [1]: 10.0
HAQ-Pain, Change from Baseline, Mean (SD) [1]: 19.0 (36.51)
HAQ-Pain, Change from Baseline, Median [1]: 7.0
HAQ-Pain, Observed, Mean (SD) [1]: 46.7 (40.41)
HAQ-Pain, Observed, Median [1]: 40.0
HAQ-DI, Change from Baseline, Mean (SD) [2]: 0.2 (0.56)
HAQ-DI, Change from Baseline, Median [2]: 0.1
HAQ-DI, Observed, Mean (SD) [2]: 0.7 (0.51)
HAQ-DI, Observed, Median [2]: 0.6
HAQ-Health, Change from Baseline, Mean (SD) [2]: −11.7 (62.52)
HAQ-Health, Change from Baseline, Median [2]: −10.0
HAQ-Health, Observed, Mean (SD) [2]: 28.3 (40.72)
HAQ-Health, Observed, Median [2]: 10.0
HAQ-Pain, Change from Baseline, Mean (SD) [2]: 0.0 (45.83)
HAQ-Pain, Change from Baseline, Median [2]: −10.0
HAQ-Pain, Observed, Mean (SD) [2]: 46.7 (40.41)
HAQ-Pain, Observed, Median [2]: 40.0
HAQ-DI, Change from Baseline, Mean (SD) [3]: −0.1 (0.35)
HAQ-DI, Change from Baseline, Median [3]: −0.1
HAQ-DI, Observed, Mean (SD) [3]: 0.1 (0.18)
HAQ-DI, Observed, Median [3]: 0.1
HAQ-Health, Change from Baseline, Mean (SD) [3]: −80.0 (0.00)
HAQ-Health, Change from Baseline, Median [3]: −80.0
HAQ-Health, Observed, Mean (SD) [3]: 0.0 (0.00)
HAQ-Health, Observed, Median [3]: 0.0
HAQ-Pain, Change from Baseline, Mean (SD) [3]: 2.5 (74.25)
HAQ-Pain, Change from Baseline, Median [3]: 2.5
HAQ-Pain, Observed, Mean (SD) [3]: 40.0 (56.57)
HAQ-Pain, Observed, Median [3]: 40.0
HAQ-DI, Change from Baseline, Mean (SD) [4]: −0.1 (0.35)
HAQ-DI, Change from Baseline, Median [4]: −0.1
HAQ-DI, Observed, Mean (SD) [4]: 0.1 (0.18)
HAQ-DI, Observed, Median [4]: 0.1
HAQ-Health, Change from Baseline, Mean (SD) [4]: −45.0 (49.50)
HAQ-Health, Change from Baseline, Median [4]: −45.0
HAQ-Health, Observed, Mean (SD) [4]: 0.0 (0.00)
HAQ-Health, Observed, Median [4]: 0.0
HAQ-Pain, Change from Baseline, Mean (SD) [4]: 2.5 (74.25)
HAQ-Pain, Change from Baseline, Median [4]: 2.5
HAQ-Pain, Observed, Mean (SD) [4]: 40.0 (56.57)
HAQ-Pain, Observed, Median [4]: 40.0
HAQ-DI, Change from Baseline, Mean (SD) (Week 14, Methotrexate Baseline): −0.2 (0.77)
HAQ-DI, Change from Baseline, Median (Week 14, Methotrexate Baseline): 0.0
HAQ-DI, Observed, Mean (SD) (Week 14, Methotrexate Baseline): 0.5 (0.41)
HAQ-DI, Observed, Median (Week 14, Methotrexate Baseline): 0.5
HAQ-Health, Change from Baseline, Mean (SD) (Week 14, Methotrexate Baseline): −12.5 (36.79)
HAQ-Health, Change from Baseline, Median (Week 14, Methotrexate Baseline): −5.0
HAQ-Health, Observed, Mean (SD) (Week 14, Methotrexate Baseline): 36.6 (33.87)
HAQ-Health, Observed, Median (Week 14, Methotrexate Baseline): 16.5
HAQ-Pain, Change from Baseline, Mean (SD) (Week 14, Methotrexate Baseline): −13.9 (30.48)
HAQ-Pain, Change from Baseline, Median (Week 14, Methotrexate Baseline): −12.5
HAQ-Pain, Observed, Mean (SD) (Week 14, Methotrexate Baseline): 27.1 (26.25)
HAQ-Pain, Observed, Median (Week 14, Methotrexate Baseline): 15.0
HAQ-DI, Change from Baseline, Mean (SD) (Week 14, Pegloticase Baseline): −0.3 (0.80)
HAQ-DI, Change from Baseline, Median (Week 14, Pegloticase Baseline): 0.0
HAQ-DI, Observed, Mean (SD) (Week 14, Pegloticase Baseline): 0.5 (0.41)
HAQ-DI, Observed, Median (Week 14, Pegloticase Baseline): 0.5
HAQ-Health, Change from Baseline, Mean (SD) (Week 14, Pegloticase Baseline): −4.3 (43.82)
HAQ-Health, Change from Baseline, Median (Week 14, Pegloticase Baseline): −1.0
